Tested on: SEM cells
Assay: cell viability relative to DMSO control; higher = less cytotoxic
Conditions: 48 h
Procedure, shortened: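 Viability is a per-plate percentage relative to DMSO wells, with cell-free wells as background. CellTiter-Glo One luminescence was read after 48 h at 37°C on 1536-well plates (5 μl) of NOMO1 or SEM (500 cells/well) or P12-Ichikawa (1000 cells/well) leukemia cells. The cells had been adapted for at least four passages in each medium and pin-dosed with library compounds in DMSO from 47 μM to 0.79 nM in 11 threefold steps.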

[1] = HPLM + 10% dialyzed FBS, 0.000781 µM
[2] = HPLM + 10% dialyzed FBS, 0.00234 µM
[3] = HPLM + 10% dialyzed FBS, 0.00702 µM
[4] = HPLM + 10% dialyzed FBS, 0.0211 µM
[5] = HPLM + 10% dialyzed FBS, 0.0632 µM
[6] = HPLM + 10% dialyzed FBS, 0.19 µM
[7] = HPLM + 10% dialyzed FBS, 0.569 µM
[8] = HPLM + 10% dialyzed FBS, 1.71 µM
[9] = HPLM + 10% dialyzed FBS, 5.12 µM
[10] = HPLM + 10% dialyzed FBS, 15.4 µM
[11] = HPLM + 10% dialyzed FBS, 46.1 µM
[12] = RPMI 5 mM glucose + 10% FBS, 0.000781 µM
[13] = RPMI 5 mM glucose + 10% FBS, 0.00234 µM
[14] = RPMI 5 mM glucose + 10% FBS, 0.00702 µM
[15] = RPMI 5 mM glucose + 10% FBS, 0.0211 µM
[16] = RPMI 5 mM glucose + 10% FBS, 0.0632 µM
[17] = RPMI 5 mM glucose + 10% FBS, 0.19 µM
[18] = RPMI 5 mM glucose + 10% FBS, 0.569 µM
[19] = RPMI 5 mM glucose + 10% FBS, 1.71 µM
[20] = RPMI 5 mM glucose + 10% FBS, 5.12 µM
[21] = RPMI 5 mM glucose + 10% FBS, 15.4 µM
[22] = RPMI 5 mM glucose + 10% FBS, 46.1 µM
[23] = RPMI 5 mM glucose + 10% dialyzed FBS, 0.000781 µM
[24] = RPMI 5 mM glucose + 10% dialyzed FBS, 0.00234 µM
[25] = RPMI 5 mM glucose + 10% dialyzed FBS, 0.00702 µM
[26] = RPMI 5 mM glucose + 10% dialyzed FBS, 0.0211 µM
[27] = RPMI 5 mM glucose + 10% dialyzed FBS, 0.0632 µM
[28] = RPMI 5 mM glucose + 10% dialyzed FBS, 0.19 µM
[29] = RPMI 5 mM glucose + 10% dialyzed FBS, 0.569 µM
[30] = RPMI 5 mM glucose + 10% dialyzed FBS, 1.71 µM
[31] = RPMI 5 mM glucose + 10% dialyzed FBS, 5.12 µM
[32] = RPMI 5 mM glucose + 10% dialyzed FBS, 15.4 µM
[33] = RPMI 5 mM glucose + 10% dialyzed FBS, 46.1 µM

Compound | cell viability [1] [%] | cell viability [2] [%] | cell viability [3] [%] | cell viability [4] [%] | cell viability [5] [%] | cell viability [6] [%] | cell viability [7] [%] | cell viability [8] [%] | cell viability [9] [%] | cell viability [10] [%] | cell viability [11] [%] | cell viability [12] [%] | cell viability [13] [%] | cell viability [14] [%] | cell viability [15] [%] | cell viability [16] [%] | cell viability [17] [%] | cell viability [18] [%] | cell viability [19] [%] | cell viability [20] [%] | cell viability [21] [%] | cell viability [22] [%] | cell viability [23] [%] | cell viability [24] [%] | cell viability [25] [%] | cell viability [26] [%] | cell viability [27] [%] | cell viability [28] [%] | cell viability [29] [%] | cell viability [30] [%] | cell viability [31] [%] | cell viability [32] [%] | cell viability [33] [%]
CCOC(=O)O[C@]1(C(=O)OCCl)CC[C@H]2[C@@H]3CCC4=CC(=O)C=C[C@]4(C)[C@H]3[C@@H](O)C[C@@]21C | 84.2 | 92.5 | 93.3 | 102 | 101 | 99.3 | 95.6 | 96 | 102 | 88.7 | 100 | 82.9 | 85.4 | 87.9 | 84.6 | 92.7 | 87.3 | 85.1 | 109 | 107 | 96.1 | 96.6 | 83.5 | 87.4 | 93.6 | 85.7 | 85.4 | 94.8 | 86.1 | 89.3 | 96.4 | 99.2 | 92
O=C1N\C=N/C2=C1C=N[NH]2 | 74.3 | 77.4 | 74 | 95.1 | 70.6 | 90.7 | 77.2 | 22.6 | 93.8 | 94.5 | 41.9 | 70.2 | 79 | 69.4 | 90.4 | 62.5 | 91.7 | 81.2 | 20.2 | 81.6 | 88.8 | 71.8 | 74.8 | 86.2 | 81.4 | 104 | 79.1 | 99.2 | 82.1 | 32.9 | 96.1 | 86.7 | 47.4
CC(C)(C)C1=CC(=C(NC(=O)C/2=C/NC3=C(C=CC=C3)C2=O)C=C1O)C(C)(C)C | 122 | 118 | 128 | 123 | 113 | 131 | 124 | 124 | 109 | 108 | 103 | 109 | 108 | 126 | 113 | 120 | 111 | 129 | 129 | 123 | 116 | 108 | 98.7 | 101 | 103 | 99.9 | 101 | 103 | 115 | 97.8 | 110 | 110 | 94.7
Cc1ccc(-c2cc(C(F)(F)F)nn2-c2ccc([S+](N)(=O)[O-])cc2)cc1 | 112 | 113 | 106 | 125 | 119 | 126 | 121 | 122 | 106 | 109 | 91.3 | 84.8 | 109 | 110 | 110 | 126 | 122 | 122 | 102 | 102 | 105 | 83.9 | 120 | 121 | 126 | 127 | 120 | 123 | 120 | 111 | 117 | 140 | 87.4
COc1cc(OC)c(C(=O)CCCN2CCCC2)c(OC)c1 | 119 | 117 | 127 | 114 | 115 | 108 | 115 | 113 | 93 | 107 | 109 | 122 | 143 | 118 | 135 | 126 | 118 | 127 | 112 | 109 | 105 | 123 |  |  |  |  |  |  |  |  |  |  | 
CCc1cc(-c2n[nH]c(C)c2-c2ccc3c(c2)OCCO3)c(O)cc1O | 98 | 123 | 137 | 117 | 128 | 124 | 126 | 111 | 111 | 32.9 | 36.2 | 106 | 123 | 115 | 127 | 134 | 140 | 120 | 115 | 102 | 31.4 | 25.2 |  |  |  |  |  |  |  |  |  |  | 
CC[C@H]1CN2CCc3cc(OC)c(OC)cc3[C@@H]2C[C@@H]1C[C@H]1NCCc2cc(OC)c(OC)cc21 | 40.6 | 88.1 | 71.5 | 73.9 | 89.7 | 38.6 | 11.8 | 10.1 | 7.04 | 7.04 | 6.06 | 46.7 | 94.3 | 67.6 | 79.9 | 90.9 | 61 | 14.7 | 11 | 8.47 | 9.05 | 7.9 | 35.8 | 99.2 | 74.9 | 96 | 113 | 67.8 | 22.2 | 13 | 9.62 | 9.49 | 8.97
N#Cc1ccc(NC(=O)Nc2ccccc2Br)c2nn[nH]c12 | 81.8 | 93.9 | 110 | 103 | 107 | 108 | 123 | 126 | 125 | 109 | 112 | 80.7 | 111 | 97.9 | 91.4 | 113 | 103 | 101 | 101 | 107 | 104 | 81.7 | 93.1 | 103 | 108 | 99 | 116 | 129 | 125 | 124 | 121 | 114 | 107
CCCCCCCCCCCC/1=C(O)/C(=O)/C=C(O)\C1=O | 98.9 | 111 | 126 | 132 | 128 | 138 | 118 | 144 | 130 | 127 | 130 |  |  |  |  |  |  |  |  |  |  |  | 107 | 120 | 126 | 132 | 131 | 138 | 134 | 140 | 137 | 146 | 129
C[N+]1(C)[C@@H]2CC(OC(=O)C(O)(c3cccs3)c3cccs3)C[C@H]1[C@@H]1O[C@@H]12 (stereo not given in full) | 94.8 | 95.5 | 107 | 102 | 113 | 103 | 103 | 114 | 106 | 113 | 108 | 85.4 | 104 | 92.6 | 83 | 110 | 96.3 | 99.3 | 103 | 99.3 | 114 | 92.1 | 90.9 | 98 | 105 | 113 | 119 | 119 | 111 | 139 | 108 | 121 | 101
Cc1ccc(/C=N/NC(=O)c2ccccc2Oc2ccccc2)o1 | 102 | 101 | 87 | 85.8 | 109 | 96.9 | 89.6 | 94.9 | 93.5 | 91.7 | 90.9 | 107 | 98.2 | 93 | 106 | 102 | 104 | 99.4 | 104 | 93.6 | 98.6 | 90.5 | 147 | 102 | 91.7 | 102 | 91.8 | 101 | 97.5 | 97.4 | 66.5 | 92.5 | 73.4
NC(CO)C(=O)NNCc1ccc(O)c(O)c1O (stereo not given) | 93.3 | 116 | 105 | 89.9 | 106 | 99.8 | 102 | 103 | 104 | 89.4 | 84.2 | 99.8 | 104 | 101 | 84.7 | 101 | 105 | 98.3 | 96.1 | 72.9 | 99 | 12.6 | 103 | 105 | 104 | 89.2 | 95 | 88.5 | 100 | 91.4 | 90.5 | 87.8 | 18
C1COC(NC(C2CC2)C2CC2)=N1 | 79.5 | 78 | 66.1 | 95.3 | 72.9 | 87.9 | 81.2 | 21.6 | 88.7 | 99 | 60.1 | 72.5 | 92 | 72.4 | 75.8 | 79.5 | 81.4 | 87.2 | 15.3 | 75.6 | 75.6 | 45.9 | 74.6 | 89.1 | 66.9 | 75.7 | 73.6 | 81.8 | 106 | 16.6 | 87.5 | 105 | 36.4
Cc1cnc(Nc2ccc(N3CCN(C)CC3)cc2)nc1Nc1cccc([S+](=O)([O-])NC(C)(C)C)c1 | 110 | 110 | 118 | 114 | 116 | 94.9 | 85.1 | 27.2 | 7.39 | 2.61 | 3.12 | 116 | 113 | 107 | 114 | 104 | 90.2 | 77.8 | 22.8 | 5.43 | 2.59 | 3.4 | 106 | 105 | 119 | 110 | 101 | 88.4 | 97.9 | 26.2 | 7.58 | 2.94 | 3.71
CCCCCN(CCC12CC3CC(CC(C3)C1)C2)C(=O)NCCCc1ccncc1 | 96.2 | 110 | 108 | 106 | 102 | 109 | 107 | 106 | 107 | 102 | 89.9 | 97.1 | 92.9 | 100 | 106 | 112 | 110 | 97.3 | 114 | 96.9 | 108 | 100 | 86.9 | 96 | 106 | 110 | 105 | 107 | 106 | 116 | 120 | 90.6 | 97
COC(=O)C/1=C(C)/N/C(=C(\C1C2=CC(=CC=C2)[N+]([O-])=O)C(=O)OCCCN3CCC(CC3)(C4=CC=CC=C4)C5=CC=CC=C5)C (stereo not given) | 113 | 94.1 | 114 | 42 | 95.5 | 104 | 100 | 109 | 90.3 | 94.8 | 98.6 | 93.4 | 97.7 | 98.2 | 39.7 | 90.3 | 97.8 | 98 | 95.7 | 104 | 106 | 91.1 | 100 | 92.3 | 100 | 43.2 | 97.2 | 95.6 | 101 | 112 | 96.5 | 100 | 102

Reference: the supplement of paper PMC11451515
